The data set relates to human hair dermal papilla cells (HHDPC). Briefly: MTT cytotoxicity test of cADPR in human hair dermal papilla cells. It counts as cell-based. The conditions noted are these: cADPR in the concentration range according to the invention (0.01 to 2 ppm tested), 48 hours. How it is done:
To confirm cytotoxicity of cADPR in human hair dermal papilla cells (HHDPC), MTT assay which is a representative method for measuring cytotoxicity and determines cytotoxicity by measuring mitochondrial reducing power by dehydrogenase action was conducted.
Human hair dermal papilla cells were cultured in an HDP kit medium (Human hair dermal papilla cell media kit) at 37° C. in a 5% CO2 incubator (manufactured by Thermo Fisher Scientific, USA).
The cultured cells were dispensed into a 24-well plate at a concentration of 3×10^4 cells/well. After 18 hours, the cADPR mixture solutions according to Preparation Examples 1-1 to 1-6 (0.01, 0.05, 0.1, 0.5, 1 and 2 ppm, respectively) were added to each well. Then, the cells were cultured in the 5% CO2 incubator at 37° C. for 48 hours. After 48 hours of the incubation, each well was washed once with PBS (phosphate buffered saline) solution, and added with 50 μl of 5 mg/mL MTT reagent (Sigma, USA) and 450 μl of fresh medium. The wells were incubated for 2.5 hours and then supernatants were removed.

The structures appear in SMILES notation.

As for `N=c1c2ncn3c2ncn1[C@@H]1O[C@H](COP(=O)(O)OP(=O)(O)OC[C@H]2O[C@@H]3[C@H](O)[C@@H]2O)[C@@H](O)[C@H]1O` [cADPR, Cyclic ADP Ribose], the cytotoxicity entry is recorded as “no cytotoxicity was observed”.

The values above are taken from patent US11471474B2, “Pharmaceutical or cosmetic composition for preventing or treating hair loss or promoting hair growth” (priority 2018, dated 2022).
